Publication PMC6176321, “Efficient Synthesis of Glutamate Peptide-Estradiol Conjugate for Imaging Estrogen Receptor-Positive Diseases” (BioMed Research International, 2018)
Ends that are not written are not given here.

Columns and labels:
[1] = test system: SK-BR-3 (ER-) breast cancer cells; experiment: In vitro cellular uptake assay (sensitivity); assay type: cell-based; settings: 50,000 cells/well, 4 uCi/80uL/well, 4ug/well, average of three measurements
Procedure: (§1) In vitro cellular uptake studies of ^68Ga-GAP-EDL in breast tumor cells were performed. Breast cancer cell lines with high (MCF7; ER+) and low (SK-BR-3; ER-) estrogen receptor densities were used to determine the sensitivity and specificity for the cellular uptake assay. Briefly, for sensitivity assay, breast tumor cells (50,000 cells/well, 12 wells) were added with ^68GaCl3, ^68Ga-GAP, and ^68Ga-GAP-EDL (4 uCi/80uL/well, 4ug/well). The cells were incubated for 0.5-2 hrs. […] After incubation, the supernatant was collected. The cells were washed twice with ice cold PBS (1 ml) and trypsin EDTA (0.1 ml). After 2 min, the cells were collected. The wells were washed twice with cold PBS (0.5ml). The total volume of cell supernatant and the total volume containing cells were transferred to test tube to count the activity separately. Each piece of data represents an average of three measurements. Percentage of uptake (%)=cell activity/(cell supernatant+ cell activity)∗100% was calculated.

[2] = test system: MCF7 (ER+) breast cancer cells; experiment: In vitro cellular uptake assay (sensitivity); assay type: cell-based; settings: 50,000 cells/well, 4 uCi/80uL/well, 4ug/well, average of three measurements
Procedure: as §1

[3] = Micro-PET/CT imaging, tumor-to-muscle count density ratio; design: species or system mice; settings: mouse, in vivo, 0.14 mg per 100uCi (0.2 mL) per mouse, 0.14mg per 100μCi, iv, n=2 per compound
Procedure: For PET imaging studies, athymic nude mice (n=2 per compound) inoculated with MCF-7 cells (s.c. 10^6 cells/mouse) at the left hind legs. When tumor reached 0.7cm, the tumor-bearing mice were anesthetized with 2% isoflurane on prone position. ^68Ga chloride (5mCi) was obtained by eluting a ^68Ge/^68Ga generator (20mCi size from Eckert Ziegler, Germany) with HCL (0.1N, 1.5 mL). Labeling GAP (1 mg) and GAP-EDL (1mg) was achieved by dissolving both compounds in sodium acetate (0.4 mL, 0.1N, pH 5.4), followed by adding ^68Ga chloride (1mCi, 0.3mL). Both compounds were sat at 37°C for 20 min. For animal imaging studies, the concentrations were diluted to 1.5mL/mg by adding saline (0.9%). Each mouse was administered with ^68Ga-GAP and ^68Ga-GAP-EDL (0.14mg per 100μCi, 0.2 mL, iv). ^68Ga-GAP and ^68Ga-GAP-EDL imaging studies were performed with a Siemens Inveon micro-PET/CT scanner (Siemens Medical Systems, Hoffman Estates, IL). Three serial 30-minute trans-axial PET images were obtained. All corrections for attenuation, scatter, and dead time were applied to generate quantifiable images. Regions of interests were then drawn on the tumor tissue and muscle regions and time activity curves were generated, the counts per pixel were used to determine tumor tissue-to-muscle tissue count density ratios.

| Compound | Percentage of uptake ([1]; SK-BR-3, 30min incubation) | Percentage of uptake ([1]; SK-BR-3, 1h incubation) | Percentage of uptake ([1]; SK-BR-3, 2h incubation) | Percentage of uptake ([2]; MCF-7, 30min incubation) | Percentage of uptake ([2]; MCF-7, 1h incubation) | Percentage of uptake ([2]; MCF-7, 2h incubation) | tissue to tissue ratio at 0.5 h ([3]; 30 min) | tissue to tissue ratio at 1 h ([3]; 60 min) | tissue to tissue ratio at 1.5 h ([3]; 90 min) |
| --- | --- | --- | --- | --- | --- | --- | --- | --- | --- |
| [Cl][68Ga]([Cl])[Cl] [^68GaCl3] | 1.74±0.21% | 1.80±0.20% | 2.21±0.11% | 1.35±0.35% | 1.79±0.28% | 1.63±0.33% |  |  |  |
| EEEEEE [^68Ga-GAP, metal not drawn] | 1.84±0.27% | 3.11±1.29% | 2.45±0.21% | 2.20±0.73% | 3.20±1.17% | 2.43±0.71% | 1.1 ± 0.02 | 1.2 ± 0.01 | 1.2 ± 0.02 |
